Reference: patent US20250345295A1, “LMK235 COMPOSITIONS AND METHODS” (UNM Rainforest Innovations, priority 2024, published 2025)

Columns and labels:
[1] = system: small (<30 μm) TG neurons from naïve mice; experiment: Whole-cell patch-clamp electrophysiology, TG neurons from naïve mice; format: cell-based, mouse; conditions: 13 μM for one hour vs 0.1% DMSO
Description: The excitability of TG neurons is directly linked to the pathophysiology of trigeminal neuropathic pain. In order to determine the effect of LMK235 on TG neurons from FRICT-ION mice, whole-cell patch-clamp electrophysiological recordings were made from small (<30 μm) TG neurons in the presence of LMK235 (13 μM) or vehicle (0.1% DMSO). TG neurons were obtained from FRICT-ION mice at three weeks post injury or naïve mice. The TG neurons were treated for one hour in vitro with either LMK235 or vehicle control prior to recording (FIG. 7).
Neurons with a diameter of <30 μm were identified by infrared differential interference contrast (IR-DIC) imaging with a microscope connected to an Olympus digital camera. Current clamp recordings were performed using a Molecular Devices Multiclamp 700B (Scientifica, UK). Signals were filtered at 5 KHz, acquired at 50 KHz using a Molecular Devices 1550B converter (Scientifica, UK) and recorded using Clampex 11 software (Molecular Devices, Scientifica, UK). Electrodes were pulled with a Zeitz puller (Werner Zeitz, Martinsreid, Germany) from borosilicate thick glass (GC150F, Sutter Instruments). Electrode resistance was 5-8 MΩ. Bridge balance was applied to all recordings. Intracellular solution contained (in mM) 125 K-gluconate, 6 KCl, 10 HEPES, 0.1 EGTA, 2 Mg-ATP, pH 7.3 with KOH, and osmolarity of 290-310 mOsm. Artificial cerebrospinal fluid (aCSF) contained (in mM) 113 NaCl, 3 KCl, 25 NaHCO3, 1 NaH2PO4, 2 CaCl2), 2 MgCl2, and 11-glucose. For whole-cell current clamp recordings, to evaluate the basic input-output action potential frequency response to hyperpolarization and depolarization, DC current was injected from 0 pA to +200 pA in 10-pA increments for a duration of 500 milliseconds at the cell's intrinsic resting membrane potential. Data acquisition was sampled at 20 kHz and filtered at 2.4 kHz. Recordings with a series resistance greater than 20 MΩ were discarded, and series resistance was compensated to 70%. In response to a −100 pA hyperpolarizing pulse with 500 millisecond duration, voltage sag amplitude was measured. Sag ratio was calculated using the following equation as described previously (Fan et al., Front Cell Neurosci 2016 Mar. 24; 10:74):
where Vpeak is the maximum voltage deflection and Vss is the steady state voltage at the end of the hyperpolarizing pulse.
Male mice were euthanized three weeks after inducing the FRICT-ION model. The TG were dissected, minced, and dissociated in an enzymatic combination containing sterile, calcium-free, and magnesium-free HBSS (Cat #14170112, Gibco), papain suspension (32.7 U/mgP, Cat #LS003126; Worthington, Lakewood, NJ), L-Cysteine (Cat #C7352-25g, Sigma), and saturated bicarbonate (Cat #S5761-500g, Sigma) solution. […]

[2] = system: HDAC5 and pain related genes in TG; experiment: RT-PCR of TG gene expression; format: in vivo, mouse
Description: To confirm that the anti-allodynic mechanism provided by LMK235 was accompanied by changes in RNA of specific pain relate genes, TG expression of several genes was assessed in the TG of LMK235-treated and untreated FRICT-ION groups to naïve controls with RT-PCR (FIG. 12).
Primers were ordered from Bio-Rad Laboratories, Inc. (Hercules, CA). Samples were run by UNM Human Tissue Repository Core facility. 400 μg of total RNA was transcribed into cDNA using iScript cDNA synthesis kit (Catalog #1708890, BioRad Laboratories, Inc., Hercules, CA, USA). Relative analysis of HDAC5 by Sybr Green qRT-PCR was run in order to validate the results observed via RNAseq. All primers, housekeeping gene primers, and the amplicon context sequence were purchased pre-validated from Bio-Rad Laboratories, Inc. (PrimePCR SYBR Green Assay: HDAC5, Mouse, qMmuCID0021326; Bio-Rad Laboratories, Inc., Hercules, CA). All qRT-PCR amplification reactions were done in 20 μl volumes in triplicate using iTaq Universal SYBR Green Supermix (Catalog #1725122, Bio-Rad Laboratories, Inc., Hercules, CA) in 96-well plates and run on a LightCycler 96 qRT-PCR system (Roche, Germany). The Amplification program used for amplification was an initial activation step of 95° C. for two minutes followed by 40 cycles at 95° C. for five seconds and 60° C. for 30 seconds, and concluding with a melt curve of 65° C.-95° C. with five seconds/step. qRT-PCR was done on the HDAC5 gene target and two housekeeping genes within each of the treated and untreated controls and experimental conditions. qRT-PCR data were analyzed using the 2-ΔΔcT method (Livak K J, Schmittgen T D, Methods 2001 December;25(4):402-408). Briefly, the mean ΔcT of each differentially expressed gene target assayed for, in both the experimental conditions and the untreated controls was calculated by subtracting the mean cT from the mean cT of the housekeeping genes values for each sample type. ΔΔcT was then calculated by subtracting the experimental ΔcT group from the control Act group. Expression fold change was expressed as 2-ΔΔcT.

[3] = LMK235-treated FRICT-ION mice, week 10

Which results are given for `Cc1cc(C)cc(C(=O)NOCCCCCC(=O)NO)c1` [LMK235, N-[[6-(Hydroxyamino)-6-oxohexyl]oxy]-3,5-dimethyl-benzamide]?
electrophysiological properties [1]: not significantly altered; resting membrane potential (RMP) [1]: no significant differences; rheobase [1]: no significant differences; sag ratio [1]: no effect; HDAC5 expression ([2]; LMK235-treated FRICT-ION mice): reduced; Hist1h2bc change ([2]; LMK235-treated FRICT-ION mice): 1.4 fold; Hist2h2aa1 change ([2]; LMK235-treated FRICT-ION mice): 1.6 fold; CCKBR RNA [2, 3]: normalized; GNAI2 RNA [2, 3]: partially restored; IFIT1 RNA [2, 3]: partially restored; NTS RNA [2, 3]: normalized; SCFN9 RNA [2, 3]: normalized; HDAC5 expression ([2]; LMK235-treated naïve controls): reduced; changes in HDAC10 gene ([2]; LMK235-treated naïve mice): not observed; changes in HDAC11 gene ([2]; LMK235-treated naïve mice): not observed
